Data: EP0863156A1, “Peptides useful as somatostatin antagonists” (American Cyanamid Company, priority 1997, dated 1998)
Square brackets hold non-standard residues; d marks the D form. Peptide text beside a SMILES is read from it.

Legend:
[1] = tested on: serum growth hormone (GH) levels; test: In vivo serum growth hormone levels in anaesthetized rats (radioimmunoassay); parameters: species or system Male Sprague-Dawley rats; details: for SGH: i.v., BIM 23014C 10 µg at 60 min
Method: Evaluation in anaesthetized rats. Male Sprague-Dawley rats are anaesthetized with Sagatal and fitted so as to allow efficient intravenous treatment with control and test compounds as well as frequent blood sampling. Blood samples are tested for growth hormone (GH) levels by radioimmunoassay. Thirty minutes after the initiation of blood sampling, rats are given 5 µg, 25 µg or 50 µg of peptide 1.
Peptide 1 is tested in combination with growth hormone releasing factor (GRF), to investigate whether said peptide may be mimicking the action of GRF. Anaesthetized rats are given GRF (1 µg) alone and in combination with peptide 1 (50 µg). […]

[2] = tested on: spontaneous growth hormone secretory pulses; test: Spontaneous growth hormone secretory pulses in conscious rats under intravenous infusion; format: in vivo, Male Sprague-Dawley rats; details: Figure 5
Method: Evaluation in conscious rats. Male Sprague-Dawley rats are fitted so as to allow efficient intravenous treatment with control and test compounds as well as frequent blood sampling. Blood samples are tested for growth hormone (GH) levels by radioimmunoassay. Blood samples are taken over a 12 hour period. At a 6 hour time point, peptide 1 is infused intravenously (300 µg/hr) into conscious, freely moving male rats for two hours. Control animals receive saline infusions over the same time period. […] It is known, SRIF is required for growth hormone pulsatility and that an SRIF antagonist abolishes said pulsatility (see Tannenbaum, G.S. and Ling, N., Endocrinology, 115, 1952-1957, 1984, incorporated herein by reference).

SSTR2 = SSTR2 (Rattus norvegicus, UniProt P30680); test: cAMP accumulation in forskolin-stimulated GH4C1/SSTR2 cells (SPA radioimmunoassay); format: cell-based; parameters: expressed in transfected cells; host or cells: GH4C1 rat pituitary tumor cells (GH4C1/SSTR2); details: in the absence of SRIF (inverse agonist activity)
Sequence of SSTR2 (P30680 whole entry): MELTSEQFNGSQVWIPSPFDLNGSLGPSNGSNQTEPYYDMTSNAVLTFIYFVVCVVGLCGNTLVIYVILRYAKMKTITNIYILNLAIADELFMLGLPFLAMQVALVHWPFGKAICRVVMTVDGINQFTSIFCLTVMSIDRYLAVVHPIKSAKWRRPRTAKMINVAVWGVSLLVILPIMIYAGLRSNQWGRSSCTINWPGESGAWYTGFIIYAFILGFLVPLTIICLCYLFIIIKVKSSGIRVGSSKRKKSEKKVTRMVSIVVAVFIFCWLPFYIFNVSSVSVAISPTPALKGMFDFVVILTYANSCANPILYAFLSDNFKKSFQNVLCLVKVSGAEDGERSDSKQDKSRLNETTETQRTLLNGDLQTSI
Excerpt: A primary effect of SRIF upon mammalian cells is the reduction of cyclic adenosine 3',5'-monophosphate(cAMP) levels, via inhibition of adenylyl cyclase. This is the basis of a common assay for SRIF agonists and antagonists, whereby SRIF agonists reduce artificially stimulated cAMP levels, and SRIF antagonists reverse the effect of SRIF. The rat pituitary tumor cell line GH4C1 predominantly expresses SSTR2, and responds to SRIF and to forskolin, a stimulator of adenylate cyclase (see C.M. Eppler, et al., J. Biol. Chem., 267, 15603-15612, 1992, incorporated herein by reference). […] This increases the response to SRIF and provides a greater dynamic range for the measurement of SRIF antagonist activity.
Stimulation of cells. GH4C1/SSTR2 cells, grown in DMEM with 10% bovine serum, are released from a tissue culture dish by incubation for several minutes at 37° C with PBS containing 0.5 mM EDTA. Cells are washed in induction buffer (PBS containing 100 µM IBMX (an inhibitor of cAMP breakdown) and 2 mM CaCl2) at room temperature, and resuspended at 2 x 10^6/mL in induction buffer. Into each well of a 96-well tray are added 50 µL of a 2 X concentration of stimulants in induction buffer. […] Baseline cAMP levels are determined in samples with no added forskolin or SRIF, and each treatment is performed in triplicate.
cAMP assay. […] The 96-well tray is sealed, shaken at room temperature overnight and measured for bound radioligand in a MicroBeta liquid scintillation counter (Wallac, Gaithersburg. MD). The standard curve is determined for each experiment by performing a nonlinear regression (exponential decay) analysis of cpm measured for the cAMP standards vs. their log concentrations, and test sample values are determined by using Prism software (Graphpad Software Inc., San Diego, CA) and are shown in Table II and Figure 1.
The intrinsic activity of an SRIF antagonist is the percent reversal of the SSTR2 activation by SRIF or MK678, wherein 0% is defined by cAMP levels in samples treated with forskolin plus SRIF or MK678 and 100% is the cAMP level measured after treatment with forskolin alone. […]

## CC[C@@H](C)[C@@H](NC(=O)[C@@H](Cc1ccccc1)NC(=O)[C@@H](Cc1c[nH]cn1)NC(C)=O)C(=O)N[C@H](CCCNC(=N)N)C(=O)N[C@H](Cc1c[nH]c2ccccc12)C(=O)N[C@H](Cc1ccccc1)C(N)=O [Peptide 1, Ac-D-His-D-Phe-D-Ile-D-Arg-D-Trp-D-Phe-NH2] (Ac-[dH][dF][dI][dR][dW][dF]-NH2)
[1]; 5 µg, 25 µg or 50 µg of peptide 1 thirty minutes after initiation of blood sampling
  effect upon GH levels: dose related effect upon GH levels
[1]; highest dose (50 µg) of peptide 1 at 30 min
  serum GH levels after first dose: significant increase in serum GH levels
[1]; Peptide 1 5 µg at 30 and 90 min, time 0 min (before dosing)
  SGH: 17.0 ng/mL
[1]; Peptide 1 5 µg at 30 and 90 min, time 15 min (before dosing)
  SGH: 13.6 ng/mL
[1]; Peptide 1 5 µg at 30 and 90 min, time 30 min (time of first dose)
  SGH: 12.2 ng/mL
[1]; Peptide 1 5 µg at 30 and 90 min, time 35 min
  SGH: 17.5 ng/mL
[1]; Peptide 1 5 µg at 30 and 90 min, time 40 min
  SGH: 14.9 ng/mL
[1]; Peptide 1 5 µg at 30 and 90 min, time 45 min
  SGH: 15.7 ng/mL
[1]; Peptide 1 5 µg at 30 and 90 min, time 60 min (time of BIM dose)
  SGH: 11.4 ng/mL
[1]; Peptide 1 5 µg at 30 and 90 min, time 75 min
  SGH: 7.0 ng/mL
[1]; Peptide 1 5 µg at 30 and 90 min, time 90 min (time of second dose)
  SGH: 2.4 ng/mL
[1]; Peptide 1 5 µg at 30 and 90 min, time 95 min
  SGH: 3.1 ng/mL
[1]; Peptide 1 5 µg at 30 and 90 min, time 100 min
  SGH: 1.7 ng/mL
[1]; Peptide 1 5 µg at 30 and 90 min, time 105 min
  SGH: 1.7 ng/mL
[1]; Peptide 1 5 µg at 30 and 90 min, time 135 min
  SGH: 1.1 ng/mL
[1]; Peptide 1 25 µg at 30 and 90 min, time 0 min (before dosing)
  SGH: 19.2 ng/mL
[1]; Peptide 1 25 µg at 30 and 90 min, time 15 min (before dosing)
  SGH: 17.3 ng/mL
[1]; Peptide 1 25 µg at 30 and 90 min, time 30 min (time of first dose)
  SGH: 16.6 ng/mL
[1]; Peptide 1 25 µg at 30 and 90 min, time 35 min
  SGH: 18.4 ng/mL
[1]; Peptide 1 25 µg at 30 and 90 min, time 40 min
  SGH: 17.5 ng/mL
[1]; Peptide 1 25 µg at 30 and 90 min, time 45 min
  SGH: 14.0 ng/mL
[1]; Peptide 1 25 µg at 30 and 90 min, time 60 min (time of BIM dose)
  SGH: 13.1 ng/mL
[1]; Peptide 1 25 µg at 30 and 90 min, time 75 min
  SGH: 6.8 ng/mL
[1]; Peptide 1 25 µg at 30 and 90 min, time 90 min (time of second dose)
  SGH: 5.1 ng/mL
[1]; Peptide 1 25 µg at 30 and 90 min, time 95 min
  SGH: 11.4 ng/mL
[1]; Peptide 1 25 µg at 30 and 90 min, time 100 min
  SGH: 10.5 ng/mL
[1]; Peptide 1 25 µg at 30 and 90 min, time 105 min
  SGH: 7.9 ng/mL
[1]; Peptide 1 25 µg at 30 and 90 min, time 135 min
  SGH: 5.2 ng/mL
[1]; Peptide 1 50 µg at 30 and 90 min, time 0 min (before dosing)
  SGH: 22.7 ng/mL
[1]; Peptide 1 50 µg at 30 and 90 min, time 15 min (before dosing)
  SGH: 17.0 ng/mL
[1]; Peptide 1 50 µg at 30 and 90 min, time 30 min (time of first dose)
  SGH: 19.7 ng/mL
[1]; Peptide 1 50 µg at 30 and 90 min, time 35 min
  SGH: 50.2 ng/mL
[1]; Peptide 1 50 µg at 30 and 90 min, time 40 min
  SGH: 23.4 ng/mL
[1]; Peptide 1 50 µg at 30 and 90 min, time 45 min
  SGH: 15.5 ng/mL
[1]; Peptide 1 50 µg at 30 and 90 min, time 60 min (time of BIM dose)
  SGH: 17.1 ng/mL
[1]; Peptide 1 50 µg at 30 and 90 min, time 75 min
  SGH: 3.5 ng/mL
[1]; Peptide 1 50 µg at 30 and 90 min, time 90 min (time of second dose)
  SGH: 1.9 ng/mL
[1]; Peptide 1 50 µg at 30 and 90 min, time 95 min
  SGH: 67.3 ng/mL
[1]; Peptide 1 50 µg at 30 and 90 min, time 100 min
  SGH: 31.8 ng/mL
[1]; Peptide 1 50 µg at 30 and 90 min, time 105 min
  SGH: 10.5 ng/mL
[1]; Peptide 1 50 µg at 30 and 90 min, time 135 min
  SGH: 2.6 ng/mL
[1]; second dose of peptide 1, highest dose (50 µg), after BIM 23014C
  serum GH levels after second dose: even greater increase in serum GH levels
[2]; conscious male rats, after end of the two hour infusion of 300 µg/hr
  growth hormone secretory pulses upon withdrawal: the pulses resume synchronously, and gradually desynchronize with time
[2]; conscious, freely moving male rats, 300 µg/hr intravenously for two hours from 6 hour time point
  spontaneous growth hormone secretory pulses during infusion: abolition of these pulses
SSTR2
  forskolin-stimulated cAMP levels: increase in forskolin-stimulated cAMP levels
